One substance from US9926369B2, “Methods for treating hepatocellular cancer by administering an anti-Ang-2 antibody” (Regeneron Pharmaceuticals, Inc., priority 2009, dated 2018) can be followed below.

Assay [1] relates to PC3 (Human Prostate Cancer Cell Line) tumors. As to the kind of experiment: PC3 mouse tumor model. It counts as in vivo, NCr nude mice. The protocol:
Briefly, 5×10^6 PC3 cells in 100 μl of growth factor-reduced Matrigel (BD Biosciences) were injected subcutaneously into the flanks of 6-8 week old male NCr nude mice (Taconic, Hudson, N.Y.). After tumor volumes reached an average of about 200 mm^3, mice were randomized into groups for treatment. […] Tumor volumes were measured twice per week over the course of the experiment and tumor weights were measured upon excision of tumors at the conclusion of the experiment. Averages (mean+/−standard deviation) of tumor weight and growth were calculated for each treatment group. Percent decrease of tumor weight and growth were calculated from comparison to Fc protein measurements.

For another assay, the target named is T1, hAng-2FD-mFc I-434-M (Homo sapiens, UniProt O15123, I434M).
T1 construct: made in house
The assay is described as follows: Ang-2FD-mFc point mutant binding experiment (SPR), I-434-M. Particulars: I-434-M mutant captured; antibody/peptibody at 100 nM; 25° C. From the text: (§1) To further characterize binding between hAng2 and anti-hAng2 mAbs of the invention, seven variant hAng2-FD-mFc proteins were generated, each containing a single point mutation. Amino acids selected for mutation were based on the difference in sequence between hAng-2 and hAng-1 in the region that interacts with hTie-2 (FIG. 1). In particular, amino acids within the fibrinogen-like domain (FD) of Ang-2 which are believed to interact with Tie-2 based on crystal structure analysis, but which differ from the corresponding amino acid in Ang-1, were individually mutated to the corresponding hAng-1 residue. The results of this example indicate the amino acid residues of hAng-2 with which the Ang-2 preferential binding antibodies interact.
(§2) In this experiment, each of the seven hAng-2FD-mFc mutant proteins were captured (˜147-283 RU) on an anti-mouse-Fc surface created through direct chemical coupling to a BIACORE™ chip. Then each Ang-2 antibody (or peptibody, as the case may be) at 100 nM was injected over the captured mFc-tagged hAng-2FD protein surface at a flowrate of 50 μl/min for 180 sec, and the dissociation of variant hAng2-FD-mFc and antibody was monitored in real time for 20 min at 25° C.

Assay [2] deals with COLO 205 tumor vessel perfusion. As to the kind of experiment: Tumor perfusion by contrast-enhanced micro-ultrasound, COLO 205 tumors. The assay is classed as in vivo, mice. The settings on record: treated for 24 hrs. Here is the method: To determine whether the combination of H1H685P+VEGF Trap has a greater effect on tumor vessel function than the single agents, a micro-ultrasound (VisualSonics' Vevo 770 imaging system) was used to assess changes in tumor perfusion. COLO 205 tumors were grown to ˜125 mm^3 and mice were then treated for 24 hrs with H1H685P, VEGF Trap or the combination of both agents. Following treatment, tumor vessel perfusion was determined based on contrast-enhanced micro-ultrasound 2D image acquisition and analysis of a “wash-in” curve, which represents the amount of contrast agent entering the tumor. Average (mean+/−standard deviation) tumor perfusion was calculated for each group. Percent decrease was calculated from comparison to the Fc control group.

The next assay deals with T2, hAng-1-WT (Homo sapiens, UniProt Q15389).
T2 construct: Full-length wild-type human Ang-1 or Ang-2 at a concentration of 25 nM or 0.78 nM
T2 sequence (Q15389 16-498): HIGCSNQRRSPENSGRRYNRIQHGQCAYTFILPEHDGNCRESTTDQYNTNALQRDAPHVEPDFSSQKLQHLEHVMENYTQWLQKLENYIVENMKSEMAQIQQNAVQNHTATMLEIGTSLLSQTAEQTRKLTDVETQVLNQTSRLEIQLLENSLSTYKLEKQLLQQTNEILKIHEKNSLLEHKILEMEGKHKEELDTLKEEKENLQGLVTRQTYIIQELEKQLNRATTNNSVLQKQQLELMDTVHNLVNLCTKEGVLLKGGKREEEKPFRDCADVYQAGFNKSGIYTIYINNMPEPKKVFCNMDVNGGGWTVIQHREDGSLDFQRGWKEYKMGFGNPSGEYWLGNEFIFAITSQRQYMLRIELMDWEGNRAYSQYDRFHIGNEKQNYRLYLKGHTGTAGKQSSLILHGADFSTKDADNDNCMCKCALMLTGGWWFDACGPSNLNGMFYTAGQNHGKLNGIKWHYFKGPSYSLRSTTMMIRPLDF
The assay is described as follows: SPR binding to full-length wild-type human Ang-1 (preferential binding). Here is the method: Binding experiments (plasmon resonance assays) were conducted to ascertain whether selected antibodies bound to both Ang-2 and Ang-1 or if they preferentially bound to Ang-2 only. Each selected antibody or control construct was captured at a flow rate of 40 μL/min for 1 minute on a goat anti-human IgG polyclonal antibody surface created through direct chemical coupling to a BIACORE™ chip to form a captured antibody surface. Full-length wild-type human Ang-1 or Ang-2 at a concentration of 25 nM or 0.78 nM were injected over the captured antibody surface at a flowrate of 60 μL/min for 3 minutes, and antigen-antibody dissociation was monitored in real time for 20 minutes at either 25° C. or 37° C.
On the technique in general: In SPR one partner is held on a chip, and binding of the other changes the refractive index at the surface.

The next assay has as its target T3, hAng-2FD-mFc F-469-L (Homo sapiens, UniProt O15123, F469L).
T3 construct: made in house
As to the kind of experiment: Ang-2FD-mFc point mutant binding experiment (SPR), F-469-L. Particulars: F-469-L mutant captured; antibody/peptibody at 100 nM; 25° C.
Source text: as §1, §2

[3] abbreviates: PC3, 2.5 mg/kg subcutaneous twice per week.
[4] abbreviates: PC3, 10 mg/kg intraperitoneal twice per week, vs Fc protein.
Setting [5] is: PC3, 12.5 mg/kg subcutaneous twice per week.
The mark [6] stands for this setting: PC3, 25 mg/kg subcutaneous twice per week.

T3 sequence (O15123 with tags, fused parts or gaps F469L): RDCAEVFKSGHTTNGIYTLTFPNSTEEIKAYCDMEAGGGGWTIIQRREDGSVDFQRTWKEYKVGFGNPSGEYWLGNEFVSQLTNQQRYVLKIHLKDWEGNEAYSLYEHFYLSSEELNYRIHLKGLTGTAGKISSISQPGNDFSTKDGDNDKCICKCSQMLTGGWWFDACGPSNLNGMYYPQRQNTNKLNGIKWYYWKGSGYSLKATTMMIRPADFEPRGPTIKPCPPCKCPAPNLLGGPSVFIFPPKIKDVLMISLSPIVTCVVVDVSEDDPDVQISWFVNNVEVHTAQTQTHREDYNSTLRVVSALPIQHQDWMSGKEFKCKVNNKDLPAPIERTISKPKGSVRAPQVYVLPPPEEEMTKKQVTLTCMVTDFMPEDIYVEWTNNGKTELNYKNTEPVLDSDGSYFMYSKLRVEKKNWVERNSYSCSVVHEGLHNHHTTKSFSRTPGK
T1 sequence (O15123 with tags, fused parts or gaps I434M): as the sequence (O15123 with tags, fused parts or gaps F469L) above, with I153M, L188F counted along it

Consider “H1H685P: human anti-Ang-2 antibody, HCVR/LCVR SEQ ID NOs 18/20; also referred to as mAb1 [Antibody H1H685P]”, for which the “% Decrease in Tumor Growth” value in assay [1] (setting [3]) was 70%; in assay [1] (setting [4]) it was 40%; in assay [1] (setting [5]), 47%; in assay [1] (setting [6]), 60%. Besides, the “Avg Tumor Growth” value in assay [1] (setting [3]) was 308 ± 274 mm^3; in assay [1] (PC3, 10 mg/kg intraperitoneal twice per week, mean ± SD), 305 ± 143 mm^3; in assay [1] (setting [5]), 550 ± 150 mm^3; in assay [1] (setting [6]), 413 ± 208 mm^3. In addition, the “Avg Tumor Weight” value in assay [1] (PC3, 10 mg/kg intraperitoneal twice per week, approximately three weeks, mean ± SD) is reported as 0.44 ± 0.12 g. The “% Decrease in Tumor Weight” value in assay [1] (setting [4]) is on record as 33%. Moreover, the “Anti-tumor activity in the PC3 mouse tumor model (in words)” value in assay [1] (as compared to the control constructs) is on record as “especially marked anti-tumor activity”. Moreover, the Kd with hAng-2FD-mFc I-434-M amounted to 0.0179 nM; with hAng-2FD-mFc F-469-L it was 13.8 nM. Moreover, the RU with hAng-2FD-mFc I-434-M is 235.95 RU; in the assay with hAng-2FD-mFc F-469-L it was 101.16 RU. Further, the “Relative Tumor Perfusion” value in assay [2] (mean ± SD) is on record as 6.32 ± 2.81. Also, the “% Decrease in Tumor Perfusion” value in assay [2] (vs Fc control) is given as 22%. Also, the “KD, binding to hAng-1-WT” value with hAng-1-WT (25° C.) and with hAng-1-WT (37° C.) was “No binding” in each case. The “ka, binding to hAng-1-WT” value with hAng-1-WT (25° C.) and with hAng-1-WT (37° C.) was “No binding” each time. In addition, the “kd, binding to hAng-1-WT” value with hAng-1-WT (25° C.) and with hAng-1-WT (37° C.) was “No binding” in each case. Besides, the “Binding to Ang-1 (in words)” value with hAng-1-WT (SPR) is “does not bind to Ang-1”.

As a reminder, the Kd is the free concentration of one partner at which half of the binding sites on the other are occupied at equilibrium, for simple one-to-one binding. A high value points to weaker binding.
